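A five-concentration, 48-hour dose response in 96-well plates underlies each endpoint, interpolated linearly between surrounding concentrations. GI50 marks 50% less growth.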 Active and inactive are the calls of the source. Cut-off read from the data, not from the text of the source: active = GI50 up to about 1.1 µM and inactive = higher.
What was measured:
Test in all cases: DTP human tumour cell line panel, 48 h
[1] = tested on: SK-MEL-5
[2] = tested on: OVCAR-4
[3] = tested on: A549
[4] = tested on: NCI-H522
[5] = tested on: HOP-62
[6] = tested on: U-251
[7] = tested on: MDA-MB-231
[8] = tested on: OVCAR-5
[9] = tested on: TK-10
[10] = tested on: SF-539
[11] = tested on: HCT-116
[12] = tested on: BT-549
[13] = tested on: SK-MEL-28
[14] = tested on: EKVX
[15] = tested on: NCI-H226
[16] = tested on: 786-0
[17] = tested on: CAKI-1
[18] = tested on: SN12C
[19] = tested on: LOX IMVI
[20] = tested on: COLO 205
[21] = tested on: KM12
[22] = tested on: Hs-578T
[23] = tested on: OVCAR-8
[24] = tested on: UO-31
[25] = tested on: CCRF-CEM
[26] = tested on: NCI-H460
[27] = tested on: HL-60
[28] = tested on: SF-268
[29] = tested on: K562
[30] = tested on: M14
[31] = tested on: SF-295
[32] = tested on: HCT-15
[33] = tested on: PC-3
[34] = tested on: SK-OV-3
[35] = tested on: SNB-19
[36] = tested on: IGROV-1
[37] = tested on: NCI-H23
[38] = tested on: UACC-62
[39] = tested on: HT-29
[40] = tested on: SK-MEL-2
[41] = tested on: MCF7
[42] = tested on: MOLT-4
[43] = tested on: A498
[44] = tested on: RXF 393
[45] = tested on: HCC 2998
[46] = tested on: DU-145
[47] = tested on: T47D
[48] = tested on: MDA-MB-435
[49] = tested on: OVCAR-3
[50] = tested on: ACHN
[51] = tested on: SW-620
[52] = tested on: HOP-92
[53] = tested on: MDA-N
[54] = tested on: UACC-257
[55] = tested on: NCI/ADR-RES
[56] = tested on: SR
[57] = tested on: RPMI-8226
[58] = tested on: Malme-3M
[59] = tested on: SNB-75

CC12CC(OC(=O)[C@]1(C)O)[C@@H]([C@]1(O)CC[C@H]3[C@@H]4C[C@H]5O[C@]56[C@@H](O)C=CC(=O)[C@]6(C)[C@H]4CC[C@@]31C)C2 (stereo partly specified)
GI50 [1]: 0.785 µM (active) | GI50 [2]: 11.2 µM (inactive) | GI50 [3]: 30.5 µM (inactive) | GI50 [4]: 1.16 µM (inactive) | GI50 [5]: 28.9 µM (inactive) | GI50 [6]: 13.8 µM (inactive) | GI50 [7]: 5.2 µM (inactive) | GI50 [8]: 11 µM (inactive) | GI50 [9]: 7.36 µM (inactive) | GI50 [10]: 2.78 µM (inactive) | GI50 [11]: 3.63 µM (inactive) | GI50 [12]: 4.06 µM (inactive) | GI50 [13]: 11.7 µM (inactive) | GI50 [14]: 2.84 µM (inactive) | GI50 [15]: 40.7 µM (inactive) | GI50 [16]: 3.04 µM (inactive) | GI50 [17]: 9.59 µM (inactive) | GI50 [18]: 6.19 µM (inactive) | GI50 [19]: 4.42 µM (inactive) | GI50 [20]: 3.39 µM (inactive) | GI50 [21]: 14.4 µM (inactive) | GI50 [22]: 6.71 µM (inactive) | GI50 [23]: 3.37 µM (inactive) | GI50 [24]: 4.32 µM (inactive) | GI50 [25]: 1.33 µM (inactive) | GI50 [26]: 12.3 µM (inactive) | GI50 [27]: < 0.01 µM (active) | GI50 [28]: 5.41 µM (inactive) | GI50 [29]: 3.17 µM (inactive) | GI50 [30]: 9.02 µM (inactive) | GI50 [31]: 33.7 µM (inactive) | GI50 [32]: 7.33 µM | GI50 [33]: 12.1 µM (inactive) | GI50 [34]: 34.1 µM (inactive) | GI50 [35]: 40.1 µM (inactive) | GI50 [36]: 17.3 µM (inactive) | GI50 [37]: 4.08 µM (inactive) | GI50 [38]: 14.6 µM (inactive) | GI50 [39]: 4.03 µM (inactive) | GI50 [40]: 6.08 µM (inactive) | GI50 [41]: 3.08 µM (inactive) | GI50 [42]: 2.54 µM (inactive) | GI50 [43]: 13.8 µM (inactive) | GI50 [44]: 3.01 µM (inactive) | GI50 [45]: 16.2 µM (inactive) | GI50 [46]: 22.2 µM (inactive) | GI50 [47]: 8.02 µM (inactive) | GI50 [48]: 7.4 µM (inactive) | GI50 [49]: 2.59 µM (inactive) | GI50 [50]: 10.9 µM (inactive) | GI50 [51]: 3.18 µM (inactive) | GI50 [52]: 2.92 µM (inactive) | GI50 [53]: 7.21 µM (inactive) | GI50 [54]: 7 µM (inactive) | GI50 [55]: 5.35 µM (inactive)

COc1ccccc1/C=C1\Sc2scc(-c3ccc(O)c(O)c3)[n+]2C1=O
GI50 [1]: 18.1 µM (inactive) | GI50 [2]: 26.8 µM (inactive) | GI50 [3]: 45.8 µM (inactive) | GI50 [4]: 8.99 µM (inactive) | GI50 [5]: 29.7 µM (inactive) | GI50 [6]: 27.8 µM (inactive) | GI50 [7]: 20 µM (inactive) | GI50 [8]: 26.5 µM (inactive) | GI50 [9]: 28.5 µM (inactive) | GI50 [10]: 20.7 µM (inactive) | GI50 [11]: 16.8 µM (inactive) | GI50 [12]: 17.8 µM (inactive) | GI50 [13]: 18.2 µM (inactive) | GI50 [14]: 46.6 µM (inactive) | GI50 [15]: 27.9 µM (inactive) | GI50 [16]: 15.2 µM (inactive) | GI50 [17]: 15.1 µM (inactive) | GI50 [18]: 22.5 µM (inactive) | GI50 [19]: 18 µM (inactive) | GI50 [20]: 19.6 µM (inactive) | GI50 [21]: 32 µM (inactive) | GI50 [22]: 88.3 µM (inactive) | GI50 [56]: 6.67 µM (inactive) | GI50 [23]: 39.9 µM (inactive) | GI50 [24]: 18.7 µM (inactive) | GI50 [25]: 2.57 µM (inactive) | GI50 [26]: 18.8 µM (inactive) | GI50 [27]: 2.28 µM (inactive) | GI50 [28]: 58.9 µM (inactive) | GI50 [29]: 9.51 µM (inactive) | GI50 [30]: 15.1 µM (inactive) | GI50 [31]: 24.9 µM (inactive) | GI50 [32]: 16.5 µM | GI50 [33]: 28.2 µM (inactive) | GI50 [34]: 21.4 µM (inactive) | GI50 [35]: 35.8 µM (inactive) | GI50 [36]: 15.9 µM (inactive) | GI50 [37]: 26.6 µM (inactive) | GI50 [38]: 16.7 µM (inactive) | GI50 [39]: 21.4 µM (inactive) | GI50 [40]: 17.2 µM (inactive) | GI50 [41]: 25.5 µM (inactive) | GI50 [42]: 13.9 µM (inactive) | GI50 [44]: 17.7 µM (inactive) | GI50 [45]: 16.6 µM (inactive) | GI50 [46]: 21.4 µM (inactive) | GI50 [47]: 16.3 µM (inactive) | GI50 [48]: 27.2 µM (inactive) | GI50 [49]: 16.6 µM (inactive) | GI50 [57]: 13.8 µM (inactive) | GI50 [50]: 16.7 µM (inactive) | GI50 [51]: 15.9 µM (inactive) | GI50 [52]: 19.7 µM (inactive) | GI50 [53]: 23.9 µM (inactive) | GI50 [54]: 26.3 µM (inactive) | GI50 [55]: 27.3 µM (inactive)

Cc1ccsc1/C=N/Nc1ccccn1
GI50 [58]: 34.8 µM (inactive) | GI50 [1]: 25.9 µM (inactive) | GI50 [2]: 76.2 µM (inactive) | GI50 [3]: 7.4 µM (inactive) | GI50 [5]: > 100 µM (inactive) | GI50 [6]: 76.6 µM (inactive) | GI50 [7]: 50 µM (inactive) | GI50 [8]: > 100 µM (inactive) | GI50 [9]: 57.3 µM (inactive) | GI50 [11]: 43.8 µM (inactive) | GI50 [12]: > 100 µM (inactive) | GI50 [13]: 98.6 µM (inactive) | GI50 [14]: 15.2 µM (inactive) | GI50 [15]: > 100 µM (inactive) | GI50 [16]: 68.5 µM (inactive) | GI50 [17]: > 100 µM (inactive) | GI50 [18]: > 100 µM (inactive) | GI50 [19]: 37.2 µM (inactive) | GI50 [20]: 71.1 µM (inactive) | GI50 [21]: 35.6 µM (inactive) | GI50 [22]: > 100 µM (inactive) | GI50 [23]: 66.1 µM (inactive) | GI50 [24]: 71.3 µM (inactive) | GI50 [25]: 40.5 µM (inactive) | GI50 [28]: > 100 µM (inactive) | GI50 [29]: 43.1 µM (inactive) | GI50 [30]: 54 µM (inactive) | GI50 [31]: > 100 µM (inactive) | GI50 [32]: 60.1 µM | GI50 [33]: 39.5 µM (inactive) | GI50 [34]: > 100 µM (inactive) | GI50 [35]: > 100 µM (inactive) | GI50 [36]: 16.9 µM (inactive) | GI50 [37]: 70.6 µM (inactive) | GI50 [38]: 74 µM (inactive) | GI50 [39]: 32.8 µM (inactive) | GI50 [40]: 34.3 µM (inactive) | GI50 [41]: 1.71 µM (inactive) | GI50 [42]: 32.8 µM (inactive) | GI50 [59]: 50.2 µM (inactive) | GI50 [43]: 55 µM (inactive) | GI50 [44]: > 100 µM (inactive) | GI50 [45]: 99.5 µM (inactive) | GI50 [46]: 55.6 µM (inactive) | GI50 [47]: 60.7 µM (inactive) | GI50 [48]: 50.6 µM (inactive) | GI50 [49]: 47.5 µM (inactive) | GI50 [57]: 19.3 µM (inactive) | GI50 [50]: 74.6 µM (inactive) | GI50 [51]: 74.3 µM (inactive) | GI50 [52]: 49.3 µM (inactive) | GI50 [53]: 50.6 µM (inactive) | GI50 [54]: 54.2 µM (inactive) | GI50 [55]: 45.3 µM (inactive)

c1ccc(Cn2c(-c3ccc(-c4ccccc4)cc3)cc3ccccc32)cc1
GI50 [58]: 60 µM (inactive) | GI50 [1]: > 100 µM (inactive) | GI50 [2]: > 100 µM (inactive) | GI50 [3]: > 100 µM (inactive) | GI50 [4]: 28.2 µM (inactive) | GI50 [5]: > 100 µM (inactive) | GI50 [6]: > 100 µM (inactive) | GI50 [7]: > 100 µM (inactive) | GI50 [8]: > 100 µM (inactive) | GI50 [9]: > 100 µM (inactive) | GI50 [10]: > 100 µM (inactive) | GI50 [11]: > 100 µM (inactive) | GI50 [12]: > 100 µM (inactive) | GI50 [13]: > 100 µM (inactive) | GI50 [14]: > 100 µM (inactive) | GI50 [15]: > 100 µM (inactive) | GI50 [16]: > 100 µM (inactive) | GI50 [17]: > 100 µM (inactive) | GI50 [18]: > 100 µM (inactive) | GI50 [19]: > 100 µM (inactive) | GI50 [20]: > 100 µM (inactive) | GI50 [21]: > 100 µM (inactive) | GI50 [22]: 24.1 µM (inactive) | GI50 [56]: > 100 µM (inactive) | GI50 [23]: > 100 µM (inactive) | GI50 [24]: > 100 µM (inactive) | GI50 [25]: > 100 µM (inactive) | GI50 [26]: > 100 µM (inactive) | GI50 [27]: > 100 µM (inactive) | GI50 [28]: > 100 µM (inactive) | GI50 [30]: > 100 µM (inactive) | GI50 [31]: > 100 µM (inactive) | GI50 [32]: > 100 µM | GI50 [33]: > 100 µM (inactive) | GI50 [34]: > 100 µM (inactive) | GI50 [35]: > 100 µM (inactive) | GI50 [36]: 67.5 µM (inactive) | GI50 [37]: > 100 µM (inactive) | GI50 [38]: > 100 µM (inactive) | GI50 [39]: > 100 µM (inactive) | GI50 [40]: 94.6 µM (inactive) | GI50 [41]: > 100 µM (inactive) | GI50 [42]: > 100 µM (inactive) | GI50 [59]: 58.1 µM (inactive) | GI50 [45]: > 100 µM (inactive) | GI50 [46]: > 100 µM (inactive) | GI50 [47]: > 100 µM (inactive) | GI50 [48]: > 100 µM (inactive) | GI50 [49]: > 100 µM (inactive) | GI50 [57]: > 100 µM (inactive) | GI50 [50]: > 100 µM (inactive) | GI50 [51]: > 100 µM (inactive) | GI50 [52]: > 100 µM (inactive) | GI50 [53]: > 100 µM (inactive) | GI50 [54]: > 100 µM (inactive) | GI50 [55]: > 100 µM (inactive)

From ChEMBL document CHEMBL1201862, “PubChem BioAssay data set” (2004)
